# Where two headings read alike, the source gives them in different places.
# Tests used:
# [1] = target: T1, Human D2 Receptors (Homo sapiens, UniProt P14416); assay: Inhibition of [^3 H]spiperone binding to human D2 receptors
# T1 construct: expressed in transfected cells
# Description: (§1) The compounds of Formula I are valuable dopaminergic agents. Dopamine D2 antagonists are established as antipsychotic agents. More recently, the dopamine D3 receptor has been identified. On the basis of the localization of the dopamine D3 receptor in the limbic area of the brain, a selective D3 antagonist should show antipsychotic activity but not have the neurological side effects of D2 antagonists. The tests employed indicate that compounds of Formula I bind selectively to the dopamine D3 receptor. Thus, the compounds of Formula I were tested for their ability to bind to dopamine receptors as measured by their inhibition of [^3 H]spiperone binding to the human D2 and D3 receptors in a receptor assay described by MacKenzie R. G., et al., Characterization of the human D3 dopamine receptor expressed in transfected cell lines, Eur. J. Pharmacol., 266:79 (1994); and for their ability to inhibit locomotor activity in mice and rats, a measure of antipsychotic activity, according to the assay described by McLean J. R., et al., Pharmacology, Biochemistry and Behavior, 8:97-99 (1978). The above test methods are incorporated herein by reference.
# [2] = target: T2, Human D3 Receptors (Homo sapiens, UniProt P35462); assay: Inhibition of [^3 H]spiperone binding to human D3 receptors
# T2 construct: expressed in transfected cells
# Description: Dopamine D2 antagonists are established as antipsychotic agents. More recently, the dopamine D3 receptor has been identified. On the basis of the localization of the dopamine D3 receptor in the limbic area of the brain, a selective D3 antagonist should show antipsychotic activity but not have the neurological side effects of D2 antagonists. […] The above test methods are incorporated herein by reference.
# [3] = test system: Locomotor Activity in Rats; assay: Inhibition of locomotor activity in rats; format: in vivo; conditions: Rattus norvegicus, IP
# Description: as §1
# [4] = human D2, read-out: Inhibition of [^3 H]Spiperone Binding to Human D2 Receptors IC50
# [5] = human D3, transfected cell lines, read-out: Inhibition of [^3 H]Spiperone Binding to Human D3 Receptors IC50
# T2 sequence (P35462 whole entry): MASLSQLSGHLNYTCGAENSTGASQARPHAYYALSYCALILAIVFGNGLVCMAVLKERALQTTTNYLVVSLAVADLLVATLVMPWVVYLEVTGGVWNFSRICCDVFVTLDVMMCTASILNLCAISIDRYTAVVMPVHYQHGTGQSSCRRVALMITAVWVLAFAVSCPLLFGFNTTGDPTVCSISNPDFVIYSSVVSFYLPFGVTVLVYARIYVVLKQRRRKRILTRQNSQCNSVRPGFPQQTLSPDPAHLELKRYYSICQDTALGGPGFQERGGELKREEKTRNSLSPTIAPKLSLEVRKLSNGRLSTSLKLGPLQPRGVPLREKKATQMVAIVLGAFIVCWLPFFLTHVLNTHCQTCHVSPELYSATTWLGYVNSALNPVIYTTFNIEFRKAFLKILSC
# T1 sequence (P14416 whole entry): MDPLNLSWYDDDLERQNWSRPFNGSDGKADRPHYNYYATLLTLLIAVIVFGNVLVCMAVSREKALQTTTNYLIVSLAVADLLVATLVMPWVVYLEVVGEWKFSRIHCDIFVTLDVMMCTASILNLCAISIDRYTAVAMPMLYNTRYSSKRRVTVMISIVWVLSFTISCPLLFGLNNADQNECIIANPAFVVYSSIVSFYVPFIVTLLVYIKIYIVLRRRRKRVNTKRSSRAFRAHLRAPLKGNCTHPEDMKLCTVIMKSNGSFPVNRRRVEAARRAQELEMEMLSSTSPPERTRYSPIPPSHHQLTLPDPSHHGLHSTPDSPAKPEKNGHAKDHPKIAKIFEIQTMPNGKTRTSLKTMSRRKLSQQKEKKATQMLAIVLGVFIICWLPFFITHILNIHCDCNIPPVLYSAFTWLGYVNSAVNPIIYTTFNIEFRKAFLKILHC
SMILES,"IC50 [1, 4]","IC50 [2, 5]",other results
"c1ccc(N2CCN(CCCCOc3ccc(-c4nc5ccccc5[nH]4)cc3)CC2)cc1 [Example 16, 2-[4-[4-(4-Phenyl-1-piperazinyl)butoxy]phenyl]-1H-benzimidazole]",0.046 µM,0.0017 µM,–
"CCCSc1ccccc1N1CCN(CCCOc2ccc(-c3nc4ccccc4[nH]3)cc2)CC1 [Example 7, 2-[4-[3-[4-[2-(Propylthio)phenyl]-1-piperazinyl]propoxy]phenyl]-1H-benzimidazole]",0.0037 µM,–,–
"Clc1cccc(N2CCN(CCCOc3ccc(-c4nc5ccccc5[nH]4)cc3)CC2)c1 [Example 12, 2-[4-[3-[4-(3-Chlorophenyl)-1-piperazinyl]-propoxy]phenyl]-1H-benzimidazole]",1.27 µM,–,–
"Cn1c(-c2ccc(OCCCN3CCN(c4ccccc4)CC3)cc2)nc2ccccc21 [Example 14, 1-Methyl-2-[4-[3-(4-phenyl-1-piperazinyl)-propoxy]phenyl]-1H-benzimidazole]",0.219 µM,0.0095 µM,–
"COc1ccccc1N1CCN(CCNC(=O)c2ccc(-c3nc4ccccc4[nH]3)cc2)CC1 [Example 20, 4-(1H-Benzimidazol-2-yl)-N-[2-[4-(2-methoxyphenyl)-1-piperazinyl]ethyl]benzamide]",0.055 µM,0.024 µM,–
"C(#Cc1ccc(-c2nc3ccccc3[nH]2)cc1)CCN1CCN(c2ccccc2)CC1 [Example 15, 2-[4-[4-(4-Phenyl-1-piperazinyl)-1-butynyl]phenyl]-1H-benzimidazole]",0.581 µM,0.0017 µM,–
"c1ccc(N2CCN(CCCNc3ccc(-c4nc5ccccc5[nH]4)cc3)CC2)cc1 [Example 17, N-[4-(1H-Benzimidazol-2-yl)phenyl]-4-phenyl-1-piperazine-3-propanamine]",0.022 µM,0.0016 µM,–
"Clc1cccc(N2CCN(CCCOc3ccc(-c4nc5cccnc5[nH]4)cc3)CC2)c1Cl [Example 13, 2-[4-[3-[4-(2,3-Dichlorophenyl)-1-piperazinyl]propoxy]phenyl]-3H-imidazo[4,5-b]pyridine]",0.329 µM,0.003 µM,ED50 [3]: 4.2 mg/kg
"COc1ccccc1N1CCN(CCCOc2ccc(-c3nc4ccccc4[nH]3)cc2)CC1 [Example 10, 2-[4-[3-[4-(2-Methoxyphenyl)-1-piperazinyl]-propoxy]phenyl]-1H-benzimidazole]",–,–,IC50 [1]: 0.008 µM
"C1=C(c2ccccc2)CCN(CCCOc2ccc(-c3nc4ccccc4[nH]3)cc2)C1 [Example 8, 2-[4-[3-(3,6-Dihydro-4-phenyl-1(2H)-pyridinyl)propoxy]phenyl]-1H-benzimidazole]",0.672 µM,–,IC50 [2]: 0.018 µM
"Clc1cccc(N2CCN(CCCOc3ccc(-c4nc5ccccc5[nH]4)cc3)CC2)c1Cl [Example 2, 2-[4-[3-[4-(2,3-Dichlorophenyl)-1-piperazinyl]propoxy]phenyl]-1H-benzimidazole]",0.045 µM,0.0017 µM,–
"C(=C/c1ccc(-c2nc3ccccc3[nH]2)cc1)/CCN1CCN(c2ccccc2)CC1 [Example 21, (Z)-2-[4-[4-(4-Phenyl-1-piperazinyl)-1-butenyl]phenyl]-1H-benzimidazole]",0.1 µM,0.081 µM,–
"Fc1ccc(N2CCN(CCCOc3ccc(-c4nc5ccccc5[nH]4)cc3)CC2)cc1 [Example 6, 2-[4-[3-[4-(4-Fluorophenyl)-1-piperazinyl]propoxy]phenyl]-1H-benzimidazole]",0.119 µM,0.016 µM,–
"c1cnc(N2CCN(CCCOc3ccc(-c4nc5ccccc5[nH]4)cc3)CC2)nc1 [Example 4, 2-[4-[3-[4-(2-Pyrimidinyl)-1-piperazinyl]propoxy]phenyl]-1H-benzimidazole]",0.269 µM,–,–
"c1ccc(N2CCN(CCCOc3ccc(-c4nc5ccccc5[nH]4)cc3)CC2)nc1 [Example 3, 2-[4-[3-[4-(2-Pyridinyl)-1-piperazinyl]propoxy]phenyl]-1H-benzimidazole]",0.07 µM,–,–
"c1ccc(N2CCN(CCCCc3ccc(-c4nc5ccccc5[nH]4)cc3)CC2)cc1 [Example 22, 2-[4-[4-(4-Phenyl-1-piperazinyl)butyl]phenyl]-1H-benzimidazole]",0.032 µM,0.0013 µM,–
"COc1ccc(N2CCN(CCCOc3ccc(-c4nc5ccccc5[nH]4)cc3)CC2)cc1 [Example 11, 2-[4-[3-[4-(4-Methoxyphenyl)-1-piperazinyl]-propoxy]phenyl]-1H-benzimidazole]",0.265 µM,–,–
"CCCSc1ccccc1N1CCN(CCNC(=O)c2ccc(-c3nc4ccccc4[nH]3)cc2)CC1 [Example 19, 4-(1H-Benzimidazol-2-yl)-N-[2-[4-[2-(propylthio)phenyl]-1-piperazinyl]ethyl]benzamide]",0.119 µM,0.019 µM,–
"Clc1ccc(N2CCN(CCCOc3ccc(-c4nc5ccccc5[nH]4)cc3)CC2)cc1 [Example 9, 2-[4-[3-[4-(4-Chlorophenyl)-1-piperazinyl]propoxy]phenyl]-1H-benzimidazole]",0.784 µM,–,–
"Cc1ccc(N2CCN(CCCOc3ccc(-c4nc5ccccc5[nH]4)cc3)CC2)cc1 [Example 5, 2-[4-[3-[4-(4-Methylphenyl)-1-piperazinyl]propoxy]phenyl]-1H-benzimidazole]",2.78 µM,0.102 µM,–
"O=C(NCCN1CCN(c2ccccc2)CC1)c1ccc(-c2nc3ccccc3[nH]2)cc1 [Example 18, 4-(1H-Benzimidazol-2-yl)-N-[2-(4-phenyl-1-piperazinyl)ethyl]benzamide]",0.281 µM,–,–
"c1ccc(N2CCN(CCCOc3ccc(-c4nc5ccccc5[nH]4)cc3)CC2)cc1 [Example 1, 2-[4-[3-(4-Phenyl-1-piperazinyl)propoxy]phenyl]-1H-benzimidazole]",0.406 µM,0.001 µM,ED50 [3]: 2.3 mg/kg
